Measurements reported in publication PMC10502144, “Anti-methicillin-resistant Staphylococcus aureus activity and safety evaluation of 14-O-[(5-ethoxycarbonyl-4,6-dimethylpyrimidine-2-yl) thioacetyl] mutilin (EDT)” (Scientific Reports, 2023).

Legend:
[1] = tested on: S. Typhimurium TA97a, TA98, TA100, TA102, TA1535 and Escherichia coli WP2uvrA pKM101; test: Ames test, all tested strains (overall result and preliminary dose finding); format: cell-based, Salmonella Typhimurium; Escherichia coli
Experimental: (§1) Before the test, Salmonella Typhimurium (S. Typhimurium) TA97a, TA98, TA100, TA102, TA1535 and Escherichia coli WP2uvrA pKM101 (pKM101) were first checked for their genetic integrity, including biotin dependence, rfa marker (crystal violet), biotin, histidine dependence and presence of the plasmid pKM101 (ampicillin resistance) or pAQ1 (tetracycline resistance). […] The maximum concentration of EDT was also screened using a preliminary experiment.
(§2) DMSO (0.1 mL) was directly incorporated into 1.9 mL melted top agar as the vehicle control. […] Each strain (0.1 mL, 6–7 log10 CFU/mL) was added into 2 mL of top agar in which comprised 0.5 mL S9 (10%), serial concentrations of EDT (2000, 400, 80, 16 and 3.2 μg/plate), DMSO or control chemicals for testing with the S9. For testing without S9, 0.5 mL phosphate buffer saline (PBS, pH 7.4) replaced the S9 mix. Then, the obtained top agar was melted, poured onto the surface of […] and swirled to distribute the top agar to all surfaces of medium, followed by incubation at 37 °C for 48 h. The resultant colonies were counted manually as the number of revertant colonies per plate. The experiments were performed in triplicate and the results were expressed as the average ± SD.

[2] = tested on: Salmonella Typhimurium TA98; test: Ames test, TA98
Experimental: as §1, §2

[3] = tested on: CYP3A4; test: CYP450 inhibition in liver microsomes, probe substrate; format: biochemical; conditions: CYP3A4, rat liver microsomes
Experimental: (§3) Inhibition effects of EDT on cytochrome P450 were evaluated with rat liver microsomes in vitro[43]. Briefly, 12.8 mg EDT was dissolved in methanol and stored at 4 °C as reserve solution. A variety of specific probe substrate (1 μL), EDT solution (1 μL), incubation mixture (193 μL) in which contained glucose-6-phosphate, glucose-6-phosphate dehydrogenase, potassium phosphate buffer, magnesium chloride buffer and PBS buffer, were added into 5 μL liver microsomes to start the reaction at 37 °C. The final concentration of EDT in each group was 0.1, 1, 5, 10, 50, 100 μM. After 30 min, the reaction was terminated by adding the same volume of pre-cooled acetonitrile into the incubation system. After centrifugation for 10 min (8000×g at 4 °C), 10 μL supernatant was removed to analyze the metabolites of specific probe substrate by HPLC. The effects of EDT on CYP450 subtypes were evaluated using formula as follow: (1 − Cn/C0) × 100%, where Cn was substrate metabolite of different concentration of EDT, and C0 was metabolite of blank group.

[4] = tested on: CYP2D6; test: as above; format: biochemical; conditions: CYP2D6, rat liver microsomes
Experimental: as §3

[5] = tested on: CYP2C9; test: as above; format: biochemical; conditions: CYP2C9, rat liver microsomes
Experimental: as §3

[6] = tested on: CYP2A6; test: as above; format: biochemical; conditions: CYP2A6, rat liver microsomes
Experimental: as §3

[7] = tested on: CYP2C19; test: as above; format: biochemical; conditions: CYP2C19, rat liver microsomes
Experimental: as §3

[8] = molecular target: T1, CYP1A2 (Rattus norvegicus, UniProt P04799); test: as above; format: biochemical; conditions: 30 min
T1 construct: from tissue; host or cells: rat liver microsomes
T1 sequence (P04799 1-513): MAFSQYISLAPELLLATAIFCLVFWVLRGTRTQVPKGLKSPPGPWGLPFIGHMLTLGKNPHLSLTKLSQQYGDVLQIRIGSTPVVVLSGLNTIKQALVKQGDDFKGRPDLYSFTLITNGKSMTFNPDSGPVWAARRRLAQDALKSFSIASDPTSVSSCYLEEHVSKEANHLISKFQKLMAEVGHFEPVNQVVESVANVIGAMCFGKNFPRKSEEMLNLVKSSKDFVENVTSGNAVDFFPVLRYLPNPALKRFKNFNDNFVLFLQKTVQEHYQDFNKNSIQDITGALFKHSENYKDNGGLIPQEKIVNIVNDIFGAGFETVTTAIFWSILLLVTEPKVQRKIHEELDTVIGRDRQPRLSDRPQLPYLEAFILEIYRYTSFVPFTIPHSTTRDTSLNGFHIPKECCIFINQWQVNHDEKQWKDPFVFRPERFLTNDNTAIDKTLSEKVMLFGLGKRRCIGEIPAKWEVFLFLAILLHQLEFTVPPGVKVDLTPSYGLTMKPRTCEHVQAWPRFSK
Experimental: as §3

[9] = molecular target: T2, CYP2E1 (Rattus norvegicus, UniProt P05182); test: as above; format: biochemical; conditions: 30 min
T2 construct: from tissue; host or cells: rat liver microsomes
Experimental: as §3

[10] = tested on: Salmonella Typhimurium TA102; test: Ames test, TA102
Experimental: as §1, §2

T2 sequence (P05182 whole entry): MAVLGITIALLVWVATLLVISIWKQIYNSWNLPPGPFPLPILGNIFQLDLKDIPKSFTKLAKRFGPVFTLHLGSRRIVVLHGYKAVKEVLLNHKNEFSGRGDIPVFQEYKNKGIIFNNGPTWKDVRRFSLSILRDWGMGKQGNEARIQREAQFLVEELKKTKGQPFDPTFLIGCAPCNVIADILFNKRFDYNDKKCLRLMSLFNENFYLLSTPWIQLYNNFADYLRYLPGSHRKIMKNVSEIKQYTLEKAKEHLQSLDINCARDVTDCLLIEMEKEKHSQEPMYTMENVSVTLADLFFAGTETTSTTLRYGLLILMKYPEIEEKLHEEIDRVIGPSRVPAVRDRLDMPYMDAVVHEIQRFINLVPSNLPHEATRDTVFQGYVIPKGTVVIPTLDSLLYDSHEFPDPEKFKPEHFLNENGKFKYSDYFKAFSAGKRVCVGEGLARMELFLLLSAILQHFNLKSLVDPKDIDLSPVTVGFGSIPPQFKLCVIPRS

With `C=CC1(C)CC(OC(=O)CSc2nc(C)c(C(=O)OCC)c(C)n2)C2(C)C(C)CCC3(CCC(=O)C32)C(C)C1O` (stereo not drawn) [EDT, 14-O-[(5-ethoxycarbonyl-4,6-dimethylpyrimidine-2-yl)thioacetyl] mutilin] the “toxicity to the test strains, preliminary experiment” value ([1]; 2000 μg/plate) was “not toxic”, the “toxicity to the test strains, preliminary experiment” value ([1]; 5000 μg/plate) was “inhibited the test strains” and the “number of revertant colonies compared with the vehicle control” value ([1]; 3.2-2000 μg/plate, −S9 and +S9, all strains) was “no significantly different”. The “number of revertant colonies per plate” value ([2]; TA98, 3.2 μg/plate, +S9) was 22.00 ± 2.00, the “number of revertant colonies per plate” value ([2]; TA98, 3.2 μg/plate, −S9) was 21.67 ± 1.67 and the “number of revertant colonies per plate” value ([2]; TA98, 16 μg/plate, +S9) was 24.00 ± 4.00. For the same compound, the “number of revertant colonies per plate” value ([2]; TA98, 16 μg/plate, −S9) was 23.33 ± 2.67, the “number of revertant colonies per plate” value ([2]; TA98, 80 μg/plate, +S9) was 19.00 ± 3.00 and the “number of revertant colonies per plate” value ([2]; TA98, 80 μg/plate, −S9) was 23.33 ± 2.67. For the same compound, the “number of revertant colonies per plate” value ([2]; TA98, 400 μg/plate, +S9) was 25.00 ± 4.00, the “number of revertant colonies per plate” value ([2]; TA98, 400 μg/plate, −S9) was 26.67 ± 3.33 and the “number of revertant colonies per plate” value ([2]; TA98, 2000 μg/plate, +S9) was 29.67 ± 2.33. For the same compound, the “number of revertant colonies per plate” value ([2]; TA98, 2000 μg/plate, −S9) was 32.33 ± 3.67, the IC50 at 30 min [3] was 9.25 µM and the IC50 at 30 min [4] was greater than 100 µM. The IC50 at 30 min [5] was greater than 100 µM, the IC50 at 30 min [6] was greater than 100 µM and the IC50 at 30 min [7] was greater than 100 µM. The IC50 [8] was greater than 100 µM, the IC50 [9] was 88.5 µM and the “number of revertant colonies per plate” value ([10]; TA102, 3.2 μg/plate, +S9) was 214.33 ± 14.67. For the same compound, the “number of revertant colonies per plate” value ([10]; TA102, 3.2 μg/plate, −S9) was 208.00 ± 15.00, the “number of revertant colonies per plate” value ([10]; TA102, 16 μg/plate, +S9) was 218.00 ± 9.00 and the “number of revertant colonies per plate” value ([10]; TA102, 16 μg/plate, −S9) was 205.00 ± 11.00. For the same compound, the “number of revertant colonies per plate” value ([10]; TA102, 80 μg/plate, +S9) was 223.67 ± 17.33, the “number of revertant colonies per plate” value ([10]; TA102, 80 μg/plate, −S9) was 209.33 ± 13.67 and the “number of revertant colonies per plate” value ([10]; TA102, 400 μg/plate, +S9) was 219.67 ± 18.33. The “number of revertant colonies per plate” value ([10]; TA102, 400 μg/plate, −S9) was 211.00 ± 14.00, the “number of revertant colonies per plate” value ([10]; TA102, 2000 μg/plate, +S9) was 236.33 ± 19.67 and the “number of revertant colonies per plate” value ([10]; TA102, 2000 μg/plate, −S9) was 228.00 ± 16.00.
